Experimental data as given in ChEMBL document CHEMBL4261496, “Targeting quinolone- and aminocoumarin-resistant bacteria with new gyramide analogs that inhibit DNA gyrase” (Medchemcomm, 2017).
In brackets after ≈: the same amount, converted by molar mass. Activity calls are given as the source filed them. The calls are words filed in the database; no cut-off is given here.

How the values were obtained:
Escherichia coli [1] = assay: Antibacterial activity against Escherichia coli BW25113 after 16 to 18 hrs by broth microdilution method; type: functional
Escherichia coli [2] = assay: Antibacterial activity against Escherichia coli MC4100 after 16 to 18 hrs by broth microdilution method; type: functional
Escherichia coli [3] = assay: Antibacterial activity against Escherichia coli BAS849 after 16 to 18 hrs by broth microdilution method; type: functional
Escherichia coli [4] = assay: Antibacterial activity against Escherichia coli UPEC after 16 to 18 hrs by broth microdilution method; type: functional
Acinetobacter baumannii = assay: Antibacterial activity against Acinetobacter baumannii clinical isolate after 16 to 18 hrs by broth microdilution method; type: functional
Edwardsiella tarda = assay: Antibacterial activity against Edwardsiella tarda clinical isolate after 16 to 18 hrs by broth microdilution method; type: functional
Klebsiella aerogenes = assay: Antibacterial activity against Enterobacter aerogenes clinical isolate after 16 to 18 hrs by broth microdilution method; type: functional
Klebsiella pneumoniae = assay: Antibacterial activity against Klebsiella pneumoniae after 16 to 18 hrs by broth microdilution method; type: functional
Morganella morganii = assay: Antibacterial activity against Morganella morganii clinical isolate after 16 to 18 hrs by broth microdilution method; type: functional
Pseudomonas aeruginosa = assay: Antibacterial activity against Pseudomonas aeruginosa after 16 to 18 hrs by broth microdilution method; type: functional
Salmonella typhimurium = assay: Antibacterial activity against Salmonella enterica subsp. enterica serovar Typhimurium after 16 to 18 hrs by broth microdilution method; type: functional
Shigella flexneri = assay: Antibacterial activity against Shigella flexneri after 16 to 18 hrs by broth microdilution method; type: functional
Bacillus subtilis = assay: Antibacterial activity against Bacillus subtilis after 16 to 18 hrs by broth microdilution method; type: functional
Bacillus cereus = assay: Antibacterial activity against Bacillus cereus after 16 to 18 hrs by broth microdilution method; type: functional
Enterococcus faecalis = assay: Antibacterial activity against Enterococcus faecalis after 16 to 18 hrs by broth microdilution method; type: functional
Enterococcus faecium = assay: Antibacterial activity against Enterococcus faecium after 16 to 18 hrs by broth microdilution method; type: functional
Staphylococcus aureus = assay: Antibacterial activity against Staphylococcus aureus subsp. aureus clinical isolate after 16 to 18 hrs by broth microdilution method; type: functional
[5] = tested on: Staphylococcus saprophyticus; assay: Antibacterial activity against Staphylococcus saprophyticus clinical isolate after 16 to 18 hrs by broth microdilution method; type: functional
[6] = tested on: Staphylococcus epidermidis; assay: Antibacterial activity against Staphylococcus epidermidis clinical isolate after 16 to 18 hrs by broth microdilution method; type: functional
Streptococcus agalactiae = assay: Antibacterial activity against Streptococcus agalactiae after 16 to 18 hrs by broth microdilution method; type: functional
Streptococcus pyogenes = assay: Antibacterial activity against Streptococcus pyogenes after 16 to 18 hrs by broth microdilution method; type: functional
Escherichia coli [7] = assay: Antibacterial activity against gyramide-resistant Escherichia coli JW5503 harboring GyrA Pro35Thr mutant after 16 to 18 hrs by broth microdilution method; type: functional
Escherichia coli [8] = assay: Antibacterial activity against gyramide-resistant Escherichia coli JW5503 harboring GyrA Ser97Pro mutant after 16 to 18 hrs by broth microdilution method; type: functional
Escherichia coli [9] = assay: Antibacterial activity against gyramide-resistant Escherichia coli JW5503 harboring GyrA Phe96Leu mutant after 16 to 18 hrs by broth microdilution method; type: functional
Escherichia coli [10] = assay: Antibacterial activity against gyramide-resistant Escherichia coli JW5503 harboring GyrA His45Tyr mutant after 16 to 18 hrs by broth microdilution method; type: functional
Escherichia coli [11] = assay: Antibacterial activity against gyramide-resistant Escherichia coli JW5503 harboring GyrB Thr508Met mutant after 16 to 18 hrs by broth microdilution method; type: functional
Escherichia coli [12] = assay: Antibacterial activity against ciprofloxacin-resistant Escherichia coli JW5503 harboring GyrA Ser83Leu mutant after 16 to 18 hrs by broth microdilution method; type: functional
Escherichia coli [13] = assay: Antibacterial activity against ciprofloxacin-resistant Escherichia coli JW5503 harboring GyrA Asp87Gly mutant after 16 to 18 hrs by broth microdilution method; type: functional
Escherichia coli [14] = assay: Antibacterial activity against ciprofloxacin-resistant Escherichia coli JW5503 harboring GyrA Asp87Tyr mutant after 16 to 18 hrs by broth microdilution method; type: functional
Escherichia coli [15] = assay: Antibacterial activity against ciprofloxacin-resistant Escherichia coli JW5503 harboring GyrB Ser464Phe mutant after 16 to 18 hrs by broth microdilution method; type: functional
Escherichia coli [16] = assay: Antibacterial activity against Escherichia coli HB101 after 16 to 18 hrs by broth microdilution method; type: functional
Escherichia coli [17] = assay: Antibacterial activity against Escherichia coli HB101 after 16 to 18 hrs in presence of PAbetaN by broth microdilution method; type: functional
Escherichia coli [18] = assay: Antibacterial activity against novobiocin-resistant Escherichia coli LE316 harboring GyrB Arg136Val mutant after 16 to 18 hrs in presence of PAbetaN by broth microdilution method; type: functional
[19] = Ratio of MIC for Escherichia coli BW25113 to MIC for Escherichia coli JW5503; type: functional
Escherichia coli [20] = assay: Ratio of MIC for gyramide-resistant Escherichia coli JW5503 harboring GyrA Pro35Thr mutant to MIC for Escherichia coli JW5503; type: functional
Escherichia coli [21] = assay: Ratio of MIC for gyramide-resistant Escherichia coli JW5503 harboring GyrA Ser97Pro mutant to MIC for Escherichia coli JW5503; type: functional
Escherichia coli [22] = assay: Ratio of MIC for gyramide-resistant Escherichia coli JW5503 harboring GyrA Phe96Leu mutant to MIC for Escherichia coli JW5503; type: functional
Escherichia coli [23] = assay: Ratio of MIC for gyramide-resistant Escherichia coli JW5503 harboring GyrA His45Tyr mutant to MIC for Escherichia coli JW5503; type: functional
Escherichia coli [24] = assay: Ratio of MIC for gyramide-resistant Escherichia coli JW5503 harboring GyrB Ser464Phe mutant to MIC for Escherichia coli JW5503; type: functional
Escherichia coli [25] = assay: Ratio of MIC for ciprofloxacin-resistant Escherichia coli JW5503 harboring GyrA Asp87Tyr mutant to MIC for Escherichia coli JW5503; type: functional
Escherichia coli [26] = assay: Ratio of MIC for ciprofloxacin-resistant Escherichia coli JW5503 harboring GyrA Ser83Leu mutant to MIC for Escherichia coli JW5503; type: functional
Escherichia coli [27] = assay: Ratio of MIC for ciprofloxacin-resistant Escherichia coli JW5503 harboring GyrA Asp87Gly mutant to MIC for Escherichia coli JW5503; type: functional
Escherichia coli [28] = assay: Ratio of MIC for ciprofloxacin-resistant Escherichia coli JW5503 harboring GyrB Ser464Phe mutant to MIC for Escherichia coli JW5503; type: functional
Escherichia coli [29] = assay: Ratio of MIC for novobiocin-resistant Escherichia coli CC5 harboring GyrB Arg136His mutant to MIC for Escherichia coli HB101; type: functional
Escherichia coli [30] = assay: Ratio of MIC for novobiocin-resistant Escherichia coli LE316 harboring GyrB Arg136Val mutant to MIC for Escherichia coli HB101; type: functional
Escherichia coli [31] = assay: Ratio of MIC for novobiocin-resistant Escherichia coli CC7 harboring GyrB Arg136Ser mutant to MIC for Escherichia coli HB101; type: functional
DNA gyrase = DNA gyrase (Escherichia coli, UniProt P0AES4+P0AES6); assay: Inhibition of Escherichia coli DNA gyrase assessed as inhibition of pUC19 supercoiling after 30 mins by agarose gel electrophoresis; type: protein-complex assay
[32] = target: DNA gyrase (Escherichia coli) (UniProt P0AES6+P0AES4); assay: Inhibition of Escherichia coli DNA gyrase ATPase activity up to 100 uM using DNA as substrate after 60 mins; type: protein-complex assay
Escherichia coli [33] = assay: Antibacterial activity against Escherichia coli JW5503 after 16 to 18 hrs by broth microdilution method; type: functional

## Cc1ccc(C(F)(F)F)cc1S(=O)(=O)N[C@@H]1CCN(Cc2ccc(OC3CC3)cc2)C1
Escherichia coli [1]
  MIC: 8 µg/mL (≈ 17.6 µM)
Escherichia coli [2]
  MIC: 16 µg/mL (≈ 35.2 µM)
Escherichia coli [3]
  MIC: 1 µg/mL (≈ 2.2 µM)
Escherichia coli [4]
  MIC: > 16 µg/mL
Acinetobacter baumannii
  MIC: > 16 µg/mL
Edwardsiella tarda
  MIC: 8 µg/mL (≈ 17.6 µM)
Klebsiella aerogenes
  MIC: > 16 µg/mL
Klebsiella pneumoniae
  MIC: > 16 µg/mL
Morganella morganii
  MIC: > 16 µg/mL
Pseudomonas aeruginosa
  MIC: > 16 µg/mL
Salmonella typhimurium
  MIC: 4 µg/mL (≈ 8.8 µM)
Shigella flexneri
  MIC: 4 µg/mL (≈ 8.8 µM)
Bacillus subtilis
  MIC: 8 µg/mL (≈ 17.6 µM)
Bacillus cereus
  MIC: 8 µg/mL (≈ 17.6 µM)
Enterococcus faecalis
  MIC: 16 µg/mL (≈ 35.2 µM)
Enterococcus faecium
  MIC: 8 µg/mL (≈ 17.6 µM)
Staphylococcus aureus
  MIC: 8 µg/mL (≈ 17.6 µM)
[5]
  MIC: 8 µg/mL (≈ 17.6 µM)
[6]
  MIC: 8 µg/mL (≈ 17.6 µM)
Streptococcus agalactiae
  MIC: 8 µg/mL (≈ 17.6 µM)
Streptococcus pyogenes
  MIC: 4 µg/mL (≈ 8.8 µM)
Escherichia coli [7]
  MIC: 11 µg/mL (≈ 24.2 µM)
Escherichia coli [8]
  MIC: 22 µg/mL (≈ 48.4 µM)
Escherichia coli [9]
  MIC: 11 µg/mL (≈ 24.2 µM)
Escherichia coli [10]
  MIC: 22 µg/mL (≈ 48.4 µM)
Escherichia coli [11]
  MIC: 5.5 µg/mL (≈ 12.1 µM)
Escherichia coli [12]
  MIC: 0.4 µg/mL (≈ 0.88 µM)
Escherichia coli [13]
  MIC: 0.8 µg/mL (≈ 1.76 µM)
Escherichia coli [14]
  MIC: 0.2 µg/mL (≈ 0.44 µM)
Escherichia coli [15]
  MIC: 1.6 µg/mL (≈ 3.52 µM)
Escherichia coli [16]
  MIC: 4 µg/mL (≈ 8.8 µM)
Escherichia coli [17]
  MIC: 0.1 µg/mL
Escherichia coli [18]
  MIC: 0.2 µg/mL
[19]
  Ratio: 20
Escherichia coli [20]
  Ratio: 10 - 100
Escherichia coli [21]
  Ratio: 10 - 100
Escherichia coli [22]
  Ratio: 10 - 100
Escherichia coli [23]
  Ratio: 10 - 100
Escherichia coli [24]
  Ratio: 10 - 100
Escherichia coli [25]
  Ratio: 2 - 4
Escherichia coli [26]
  Ratio: 2 - 4
Escherichia coli [27]
  Ratio: 2 - 4
Escherichia coli [28]
  Ratio: 2 - 4
Escherichia coli [29]
  Ratio: 2 - 4
Escherichia coli [30]
  Ratio: 2 - 4
Escherichia coli [31]
  Ratio: 2 - 4
DNA gyrase
  IC50: 170 nM
[32]
  inhibition: inactive

## Cc1ccc(C#N)cc1S(=O)(=O)N[C@@H]1CCN(Cc2ccc(-c3ccccc3)cc2)C1
Escherichia coli [1]
  MIC: 8 µg/mL (≈ 18.5 µM)
Escherichia coli [33]
  MIC: 0.1 µg/mL (≈ 0.232 µM)
Escherichia coli [2]
  MIC: 8 µg/mL (≈ 18.5 µM)
Escherichia coli [3]
  MIC: 0.5 µg/mL (≈ 1.16 µM)
Escherichia coli [4]
  MIC: > 16 µg/mL
Acinetobacter baumannii
  MIC: > 16 µg/mL
Edwardsiella tarda
  MIC: 8 µg/mL (≈ 18.5 µM)
Klebsiella aerogenes
  MIC: > 16 µg/mL
Klebsiella pneumoniae
  MIC: > 16 µg/mL
Morganella morganii
  MIC: > 16 µg/mL
Pseudomonas aeruginosa
  MIC: > 16 µg/mL
Salmonella typhimurium
  MIC: 2 µg/mL (≈ 4.63 µM)
Shigella flexneri
  MIC: 4 µg/mL (≈ 9.27 µM)
Bacillus subtilis
  MIC: > 16 µg/mL
Bacillus cereus
  MIC: > 16 µg/mL
Enterococcus faecalis
  MIC: > 16 µg/mL
Enterococcus faecium
  MIC: > 16 µg/mL
Staphylococcus aureus
  MIC: > 16 µg/mL
[5]
  MIC: > 16 µg/mL
[6]
  MIC: > 16 µg/mL
Streptococcus agalactiae
  MIC: > 16 µg/mL
Streptococcus pyogenes
  MIC: > 16 µg/mL
Escherichia coli [7]
  MIC: 5.4 µg/mL (≈ 12.5 µM)
Escherichia coli [8]
  MIC: 22 µg/mL (≈ 51 µM)
Escherichia coli [9]
  MIC: 2.7 µg/mL (≈ 6.26 µM)
Escherichia coli [10]
  MIC: 22 µg/mL (≈ 51 µM)
Escherichia coli [11]
  MIC: 1.3 µg/mL (≈ 3.01 µM)
Escherichia coli [13]
  MIC: 0.2 µg/mL (≈ 0.463 µM)
Escherichia coli [14]
  MIC: 0.1 µg/mL (≈ 0.232 µM)
Escherichia coli [15]
  MIC: 0.4 µg/mL (≈ 0.927 µM)
Escherichia coli [16]
  MIC: 1 µg/mL (≈ 2.32 µM)
Escherichia coli [18]
  MIC: 0.2 µg/mL
[19]
  Ratio: 80
Escherichia coli [20]
  Ratio: 10 - 100
Escherichia coli [21]
  Ratio: 10 - 100
Escherichia coli [22]
  Ratio: 10 - 100
Escherichia coli [23]
  Ratio: 10 - 100
Escherichia coli [24]
  Ratio: 10 - 100
Escherichia coli [25]
  Ratio: 2 - 4
Escherichia coli [26]
  Ratio: 2 - 4
Escherichia coli [27]
  Ratio: 2 - 4
Escherichia coli [28]
  Ratio: 2 - 4
Escherichia coli [29]
  Ratio: 2 - 4
Escherichia coli [30]
  Ratio: 2 - 4
Escherichia coli [31]
  Ratio: 2 - 4
DNA gyrase
  IC50: 47 nM
[32]
  inhibition: inactive

## Cc1ccc(F)cc1S(=O)(=O)N[C@@H]1CCN(Cc2ccc(-c3ccccc3)cc2)C1
[19]
  Ratio: > 1600
